In ChEMBL document CHEMBL5620405, “A platform for the rapid synthesis of molecular glues (Rapid-Glue) under miniaturized conditions for direct biological screening” (Eur J Med Chem, 2023):

Tested on: RS4-11
Assay: Antiproliferative activity against human RS4-11 cells assessed as reduction in cell viability measured after 72 hrs by Alamar blue assay
Type: functional, cell-based
Settings: RS4-11, 72 h

Row | IC50 [µM] | SMILES
1 | > 10 | Cc1nc2ccccn2c1/C=N/NC(=O)COc1ccccc1-c1cccc2c1CN(C1CCC(=O)N(C)C1=O)C2=O (centres undefined)
2 | 0.007 | Cc1nc2ccccn2c1/C=N/NC(=O)COc1ccccc1-c1cccc2c1CN(C1CCC(=O)NC1=O)C2=O (centres undefined)
3 | 0.071 | CN1CCN(c2ncc(/C=N/NC(=O)COc3ccccc3-c3cccc4c3CN(C3CCC(=O)NC3=O)C4=O)s2)CC1 (centres undefined)
4 | > 1 | CN1C(=O)CCC(N2Cc3c(cccc3-c3ccccc3OCC(=O)N/N=C/c3cn(S(=O)(=O)c4ccccc4)c4ccccc34)C2=O)C1=O (centres undefined)

Tested on: RS4-11
Assay: Antiproliferative activity against human RS4-11 cells assessed as cell viability at 0.1 uM measured after 72 hrs by Alamar blue assay
Type: functional
Settings: read-out: Activity

Row | SMILES | viability at 0.1 µM [%]
5 | Cc1nc2ccccn2c1/C=N/NC(=O)COc1ccccc1-c1cccc2c1CN(C1CCC(=O)NC1=O)C2=O (centres undefined) | 46
6 | CN1CCN(c2ncc(/C=N/NC(=O)COc3ccccc3-c3cccc4c3CN(C3CCC(=O)NC3=O)C4=O)s2)CC1 (centres undefined) | 56

Tested on: MOLT-4
Assay: Antiproliferative activity against human MOLT-4 cells assessed as cell viability at 1 uM measured after 72 hrs by Alamar blue assay
Type: functional
Settings: read-out: Activity

Row | SMILES | viability at 1 µM [%]
7 | Cc1nc2ccccn2c1/C=N/NC(=O)COc1ccccc1-c1cccc2c1CN(C1CCC(=O)N(C)C1=O)C2=O (centres undefined) | > 100
8 | Cc1nc2ccccn2c1/C=N/NC(=O)COc1ccccc1-c1cccc2c1CN(C1CCC(=O)NC1=O)C2=O (centres undefined) | 52
9 | CN1CCN(c2ncc(/C=N/NC(=O)COc3ccccc3-c3cccc4c3CN(C3CCC(=O)NC3=O)C4=O)s2)CC1 (centres undefined) | 66
10 | CN1C(=O)CCC(N2Cc3c(cccc3-c3ccccc3OCC(=O)N/N=C/c3cn(S(=O)(=O)c4ccccc4)c4ccccc34)C2=O)C1=O (centres undefined) | > 100

Tested on: RS4-11
Assay: Antiproliferative activity against human RS4-11 cells assessed as cell viability at 1 uM measured after 72 hrs by Alamar blue assay
Type: functional
Settings: read-out: Activity

Row | SMILES | viability at 1 µM [%]
11 | Cc1nc2ccccn2c1/C=N/NC(=O)COc1ccccc1-c1cccc2c1CN(C1CCC(=O)N(C)C1=O)C2=O (centres undefined) | 89
12 | Cc1nc2ccccn2c1/C=N/NC(=O)COc1ccccc1-c1cccc2c1CN(C1CCC(=O)NC1=O)C2=O (centres undefined) | 25
13 | CN1CCN(c2ncc(/C=N/NC(=O)COc3ccccc3-c3cccc4c3CN(C3CCC(=O)NC3=O)C4=O)s2)CC1 (centres undefined) | 24
14 | CN1C(=O)CCC(N2Cc3c(cccc3-c3ccccc3OCC(=O)N/N=C/c3cn(S(=O)(=O)c4ccccc4)c4ccccc34)C2=O)C1=O (centres undefined) | 97

Tested on: MOLT-4
Assay: Antiproliferative activity against human MOLT-4 cells assessed as reduction in cell viability measured after 72 hrs by Alamar blue assay
Type: functional, cell-based
Settings: MOLT-4, 72 h

Row | IC50 [µM] | SMILES
15 | > 10 | Cc1nc2ccccn2c1/C=N/NC(=O)COc1ccccc1-c1cccc2c1CN(C1CCC(=O)N(C)C1=O)C2=O (centres undefined)
16 | > 10 | Cc1nc2ccccn2c1/C=N/NC(=O)COc1ccccc1-c1cccc2c1CN(C1CCC(=O)NC1=O)C2=O (centres undefined)
17 | > 1 | CN1CCN(c2ncc(/C=N/NC(=O)COc3ccccc3-c3cccc4c3CN(C3CCC(=O)NC3=O)C4=O)s2)CC1 (centres undefined)
18 | > 1 | CN1C(=O)CCC(N2Cc3c(cccc3-c3ccccc3OCC(=O)N/N=C/c3cn(S(=O)(=O)c4ccccc4)c4ccccc34)C2=O)C1=O (centres undefined)

Tested on: RS4-11
Assay: Antiproliferative activity against human RS4-11 cells assessed as cell viability at 0.5 uM measured after 72 hrs by Alamar blue assay
Type: functional
Settings: read-out: Activity

Row | SMILES | viability at 0.5 µM [%]
19 | Cc1nc2ccccn2c1/C=N/NC(=O)COc1ccccc1-c1cccc2c1CN(C1CCC(=O)NC1=O)C2=O (centres undefined) | 15
20 | CN1CCN(c2ncc(/C=N/NC(=O)COc3ccccc3-c3cccc4c3CN(C3CCC(=O)NC3=O)C4=O)s2)CC1 (centres undefined) | 23

Tested on: MM1.S
Assay: Antiproliferative activity against human MM1.S cells assessed as reduction in cell viability measured after 72 hrs by Alamar blue assay
Type: functional, cell-based
Settings: not given

Row | IC50 [µM] | SMILES
21 | > 10 | Cc1nc2ccccn2c1/C=N/NC(=O)COc1ccccc1-c1cccc2c1CN(C1CCC(=O)N(C)C1=O)C2=O (centres undefined)
22 | > 10 | Cc1nc2ccccn2c1/C=N/NC(=O)COc1ccccc1-c1cccc2c1CN(C1CCC(=O)NC1=O)C2=O (centres undefined)
23 | > 10 | CN1CCN(c2ncc(/C=N/NC(=O)COc3ccccc3-c3cccc4c3CN(C3CCC(=O)NC3=O)C4=O)s2)CC1 (centres undefined)
24 | > 10 | CN1C(=O)CCC(N2Cc3c(cccc3-c3ccccc3OCC(=O)N/N=C/c3cn(S(=O)(=O)c4ccccc4)c4ccccc34)C2=O)C1=O (centres undefined)
